Source: US10131635B2, “Compositions and methods of using the compositions for plaque softening” (ALUMEND, LLC, priority 2013, dated 2018)
Entries after “also recorded” stand apart in the source; their conditions may differ.

Experiments:
[1] = Storage stability of the naphthalimide dimer (solution and powder); type: physicochemical
Description: A preparative HPLC approach was used to isolate and specifically purify the compound of formula (V) dimer from the compound of formula (V) naphthalimide product produced from the ethanol crystallization. The HPLC method used was based on the purity method outlined above; however, method modifications were made to replace acetonitrile with ethanol and TFA with acetic acid in the mobile phase. The preparative separation utilized a C18 column (X-bridge, 10 μm, 19×250 mm, Waters). The mobile phase consisted of mobile phase A, 0.1% acetic acid (aq), and mobile phase B, 9:1 ethanol:water (0.1% v/v acetic acid). The column was pre-equilibrated at a starting mobile phase of 95% A:5% B for 20 minutes, at the start of the gradient was a 2 minute hold followed by a linear gradient to 90% B at 40 minutes and a 10 minute hold. An injection volume of 8.5 mL (12 mg/mL purified compound of formula (V)) and flow rate of 8.5 mL/minute were used as well as a detector wavelength of 440 nm. The compound of formula (V) fractions were collected and analyzed using the analytical purity method presented above. Fractions meeting a minimum purity criterion were combined and the solvent driven off by rotovapping the solution to dryness. […] Finally the product was quantitatively transferred from the round bottom flask to a freeze drying flask by dissolving the product in a minimal amount of deionized water. […]

[2] = test system: artery; experiment: Artery treated with composition, angioplasty and photoactivation: fissure observation; parameters: species or system human
Method: The tissue was an artery approximately 7.4 mm in diameter. An Ultra-thin SDS 8 mm×30 mm catheter was used to dilate the artery to 7.55 mm (approximately a 2% overstretch). A fissure or a possible dissection running down the length of the tissue sample was observed.
A section (6.5 cm in length) of artery was exposed to the composition for 5 minutes. An 80 mm catheter was used to impart a 25% overstretch to the artery. The angioplasty was followed by photoactivation at 1800 mW for 60 seconds using the same 80 mm catheter with a 60 mm light fiber centered in the catheter.
A catheter with an 80 mm treatment zone balloon was used however the photoactivating light fiber was only 60 mm in length. During activation it was noted that the light fiber was shifted distally in the catheter. This meant that the distal end of the artery was receiving photoactivation, however, the proximal end received little or no light. A fissure down the length of the artery was again observed.

[3] = test system: plaque in diseased arteries from limb amputations; experiment: Plaque penetration: diseased arteries soaked with composition, balloon and light activation, visual and histological examination; parameters: species or system human; settings: 2 mg/mL in PBS pH 7.4, 5 minute soak
Method: Diseased arteries were obtained from limb amputations (leg) due to advanced Periperal Arterial Disease (PAD) from patients at a regional hospital. The received arteries were evaluated and chosen such that the diseased section was of reasonable size to accommodate the treatment catheter balloon length being used. The catheter balloon diameter used was also matched to the diameter of the artery and capable of achieving a 1:1.25 (ratio of artery diameter to balloon diameter) overstretch. The artery was laid in a petri dish and an angioplasty balloon was inserted and inflated for 60 seconds to impart the desired overstretch. While the angioplasty balloon was inflated a permanent marker was used to define the treatment zone (where the overstretch was imparted by the balloon) on the outer surface of the artery. The angioplasty balloon was deflated and removed. The inner lumen of the diseased artery was exposed to a plaque softening composition comprising a compound of formula (V) naphthalimide formulation (2 mg/mL in phosphate buffered saline, pH=7.4) for a period of 5 minutes. For the purpose of filling the artery, one end was clamped, the artery was held upright and a syringe was used to dispense the naphthalimide solution until the inner lumen was filled. The open end of the artery was then clamped and the soaking period of 5 minutes commenced. […] Arteries were cut open lengthwise and the treated section was evaluated by visual examination.
Prior to cutting the artery for visual examination samples from the treated and untreated sections were collected and preserved for histological examination. […] After this time, samples were stored in a −80° C. freezer until ready for further analysis. […] The crystalline nature of hard plaque is readily visible without staining. Under this magnification the crystalline structure of the calcific plaque was readily visible, as shown in FIG. 8 the dark area between the two lighter colored areas of the media. […]

[4] = test system: hard and soft plaque of common and lower femoral artery; experiment: Tissue immersion: hardness of plaque by manipulation with a forcep; parameters: species or system human; settings: PBS pH 7.4
Description: A sample of human tissue from the common and lower femoral artery was received. It was stored in saline and refrigerated until use. Based upon visual and tactile observations, the arteries were approximately 7-8 mm in diameter and contained evidence of both hard and soft plaque. The soft plaque has a yellow fatty appearance that is distinguishable from the vessel wall. The hard plaque presents itself as hard pieces of material that can be pulled (with a forceps) from the soft plaque. Sections of the artery suitable for catheter work were segregated and stored in phosphate buffered saline (PBS), pH=7.4. From the remaining arterial sections, pieces of tissue containing both hard and soft plaque were removed. These pieces were either placed in a solution of PBS (pH=7.4), or dimeric naphthalimide, such as a compound of formula (V) (which is in PBS, pH=7.4). Prior to immersion in either solution the relative hardness of the plaque was evaluated via manual manipulation with a forcep. After a 5 minute soak in solution (typical exposure time), no difference in the samples soaked in PBS was noticed (control). […] The samples were then left in their respective solutions for an additional 90 minutes.

degradation of dimer in powder form ([1]; periods exceeding two years of storage in a dessicator at −20° C.): no evidence of degradation | stability of dimer solution (excellent stability for periods up to) ([1]; solution at pH 7.4): up to 18 months
SMILES: NCCOCCOCCN1C(=O)c2cccc3c(NCCOCCOCCNc4ccc5c6c(cccc46)C(=O)N(CCOCCOCCN)C5=O)ccc(c23)C1=O [compound of formula (V)]
repair of fissure ([2]; angioplasty, then composition, distal part with adequate photoactivation): there appeared to be a seam indicating repair | fissure in opened artery ([2]; composition 5 minutes, then angioplasty 25% overstretch, photoactivation 1800 mW 60 seconds): no fissure observed | observation of tacking of intimal flaps ([3]; 447 nm 625 mW/cm 60 seconds): tacking of intimal flaps | visual observation of plaque softness in treated region ([3]; 447 nm 625 mW/cm 60 seconds): apparent softened plaque in the treated region; also recorded: more malleable | calcium crystals under microscope, treated vs untreated sections ([3]; light activation): less evidence of calcium crystals | relative hardness of plaque ([4]; after a 5 minute soak): slight softening | relative hardness of plaque ([4]; after an additional 90 minutes in solution): significantly softer and more pliable
